Results from patent US9617244B2, “Antibacterial quinoline derivatives” (JANSSEN PHARMACEUTICA NV, priority 2012, dated 2017).
Values after ≈ are worked out from the molar mass of the structure shown.

Columns and labels:
[1] = test system: Staphylococcus aureus (ATCC29213); test: In-vitro anti-bacterial activity, microtitre plate assay, IC90 determination (non-mycobacterial strains); format: cell-based; settings: 90% inhibitory concentration for bacterial growth, resazurin fluorescence; for IC90 STA B29213: 24 hours; for IC90: Staphylococcus aureus, ATCC29213, 24 h, read-out: IC90 STA B29213
Procedure, shortened: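 Growth inhibition measured fluorometrically with resazurin (530/590 nm) after overnight 37 °C incubation under normal atmosphere. Bacteria added at roughly 100 TCID50 per well in Mueller-Hinton broth to five-fold compound dilution series; IC90 reported in μg/ml.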

[2] = test system: Mycobacterium smegmatis (ATCC607); test: In-vitro anti-bacterial activity against strain M. Smegmatis ATCC607; format: cell-based; settings: 90% inhibitory concentration for bacterial growth, Alamar Blue fluorescence; for IC90 MSM 607: 48 hours; for IC90: Mycolicibacterium smegmatis, ATCC607, 48 h, read-out: IC90 MSM 607
Procedure, shortened: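 IC90 (μg/ml) derived from Alamar Blue fluorescence (530/590 nm) after 48 h growth at 37 °C under 5% CO2. About 250 CFU per well in Mueller-Hinton broth faced five-fold serial compound dilutions in BSA-containing wells.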

Row | SMILES | IC90 STA B29213 [1] [µg/mL] | melting point [°C] | IC90 MSM 607 [2] [µg/mL] | IC90 [1] [µg/mL] | IC90 [2] [µg/mL]
1 | COc1nc2ccc(S(C)(=O)=O)cc2cc1C(c1ccccc1)C1(O)CCNC(c2ccc(F)cc2C)C1 (stereo not drawn) [Compound 187] | >13.43 | 167 | 13.43 (≈ 25.1 µM) |  | 
2 | COc1nc2ccc(SC)cc2cc1C(c1ccc(Cl)cc1)C1(O)CCNC(CC2CCCCC2)C1 (stereo not drawn) [Compound 287] |  | 185 |  | 3.31 (≈ 6.3 µM) | 2.63 (≈ 5.01 µM)
3 | COc1nc2ccc(S(C)(=O)=O)cc2cc1C(c1ccccc1)C1(O)CCNC(Cc2ccccc2)C1 (stereo not drawn) [Compound 157] |  | 100 |  | > 13 | > 13
4 | COc1nc2ccc(SC)cc2cc1C(c1ccc(Cl)cc1)C1(O)CCNC(Cc2ccc(F)c(F)c2)C1 (stereo not drawn) [Compound 191] | 3.50 (≈ 6.31 µM) | 162 | 3.50 (≈ 6.31 µM) |  | 
5 | COc1nc2ccc(S(C)(=O)=O)cc2cc1C(c1ccc(Cl)cc1)C1(O)CCNC(Cc2ccc(F)cc2)C1 (stereo not drawn) [Compound 391] | 3.59 (≈ 6.31 µM) | 120 | 1.80 (≈ 3.16 µM) |  | 
6 | COc1nc2ccc(S(C)(=O)=O)cc2cc1C(c1ccc(Cl)cc1)C1(O)CCNC(Cc2ccccc2)C1 (stereo not drawn) [Compound 97] | >13.84 | 120 | 13.84 (≈ 25.1 µM) |  | 
7 | CS(=O)(=O)c1ccc2[nH]c(=O)c(C(c3ccccc3)C3(O)CCNC(Cc4ccccc4)C3)cc2c1 (stereo not drawn) [Compound 154] | >12.63 | 250 | >12.63 |  | 
8 | COc1nc2ccc(F)cc2cc1C(c1ccc(S(C)(=O)=O)cc1)C1(O)CCNC(c2ccc(F)cc2C)C1 (stereo not drawn) [Compound 417] |  | 150 |  | > 13.9 | > 13.9
9 | COc1nc2ccc(S(C)(=O)=O)cc2cc1C(c1ccc(Cl)cc1)C1(O)CCNCC1Cc1cccc[n+]1[O-] (stereo not drawn) [Compound 447] | >14.27 | 234 | >14.27 |  | 
10 | COc1nc2ccc(S(C)(=O)=O)cc2cc1C(c1ccc(Cl)cc1)C1(O)CCNC(Cc2ccc(F)c(F)c2)C1 (stereo not drawn) [Compound 211] |  | 150 |  | 14.8 (≈ 25.1 µM) | 7.39 (≈ 12.6 µM)
11 | CSc1ccc2[nH]c(=O)c(C(c3ccc(Cl)cc3)C3(O)CCNC(Cc4ccc(F)c(F)c4)C3)cc2c1 (stereo not drawn) [Compound 203] | 10.80 (≈ 20 µM) | > 250 |  |  | 6.81 (≈ 12.6 µM)
12 | COc1nc2ccc(S(C)(=O)=O)cc2cc1C(c1cccc(Cl)c1)C1(O)CCNC(c2ccc(F)cc2C)C1 (stereo not drawn) [Compound 45] | 1.80 (≈ 3.16 µM) | 160 | 1.14 (≈ 2 µM) |  | 
13 | COc1nc2ccc(S(C)(=O)=O)cc2cc1C(c1ccc(Cl)cc1)C1(O)CCNC(c2ccc3ccccc3c2)C1 (stereo not drawn) [Compound 461] | 2.62 (≈ 4.46 µM) | 208 | 1.47 (≈ 2.5 µM) |  | 
14 | COc1nc2ccc(Cl)cc2cc1C(c1ccc(Cl)cc1)C1(O)CCNCC1Cc1ccccn1 (stereo not drawn) [Compound 434] | 3.21 (≈ 6.31 µM) | 197 | 3.21 (≈ 6.31 µM) |  | 
15 | COc1nc2ccc(SC)cc2cc1C(c1cccc(Cl)c1)C1(O)CCNC(Cc2ccc(F)cc2F)C1 (stereo not drawn) [Compound 318] | 1.76 (≈ 3.17 µM) | 133 | 1.76 (≈ 3.17 µM) |  | 
16 | COc1nc2ccc(SC)cc2cc1C(c1ccccc1)C1(O)CCNC(c2ccc(F)cc2C)C1 (stereo not drawn) [Compound 168] | 3.17 (≈ 6.31 µM) | 169 | 1.42 (≈ 2.82 µM) |  | 
17 | COc1nc2ccc(S(C)(=O)=O)cc2cc1C(c1ccc(Cl)cc1)C1(O)CCNC(c2ccc3ccccc3c2)C1 (stereo not drawn) [Compound 459] | 13.14 (≈ 22.4 µM) | 211 | 3.70 (≈ 6.3 µM) |  | 
18 | COc1nc2ccc(Br)cc2cc1C(c1ccccc1)C1(O)CCNC(c2ccc(F)cc2C)C1 (stereo not drawn) [Compound 248] | 3.38 (≈ 6.31 µM) | 134 | 2.68 (≈ 5.01 µM) |  | 
19 | CSc1ccc2[nH]c(=O)c(C(c3cccc(Cl)c3)C3(O)CCNC(c4ccc(F)cc4C)C3)cc2c1 (stereo not drawn) [Compound 175] | 2.34 (≈ 4.47 µM) | 194 | 3.30 (≈ 6.31 µM) |  | 
20 | COc1nc2ccc(S(C)(=O)=O)cc2cc1C(c1ccccc1)C1(O)CCNC(c2ccc(F)cc2C)C1 (stereo not drawn) [Compound 252] | >13.43 | 152 | >13.43 |  | 
21 | COc1nc2ccc(S(C)(=O)=O)cc2cc1C(c1ccc(Cl)cc1)C1(O)CCNC(c2ccc(F)cc2C)C1 (stereo not drawn) [Compound 199] | 7.16 (≈ 12.6 µM) | 192 | 7.16 (≈ 12.6 µM) |  | 
22 | CSc1ccc2[nH]c(=O)c(C(c3ccccc3)C3(O)CCNC(c4ccc(F)cc4C)C3)cc2c1 (stereo not drawn) [Compound 180] | 3.08 (≈ 6.3 µM) | 186 | 3.08 (≈ 6.3 µM) |  | 
23 | COc1nc2ccc(Cl)cc2cc1C(c1ccc(Cl)cc1)C1(O)CCNCC1Cc1ccccn1 (stereo not drawn) [Compound 433] | 6.40 (≈ 12.6 µM) | 114 |  |  | 4.04 (≈ 7.95 µM)
24 | COc1nc2ccc(S(C)(=O)=O)cc2cc1C(c1cccc(Cl)c1)C1(O)CCNC(c2ccc(F)cc2C)C1 (stereo not drawn) [Compound 172] | 7.16 (≈ 12.6 µM) | 170 | 3.59 (≈ 6.31 µM) |  | 
25 | COc1nc2ccc(S(C)(=O)=O)cc2cc1C(c1ccc(Cl)cc1)C1(O)CCNC(c2ccc(F)cc2C)C1 (stereo not drawn) [Compound 200] | 5.69 (≈ 10 µM) | 187 | 5.69 (≈ 10 µM) |  | 
26 | COc1nc2ccc(SC)cc2cc1C(c1ccc(Cl)cc1)C1(O)CCNC(Cc2ccc(F)cc2)C1 (stereo not drawn) [Compound 301] | 6.76 (≈ 12.6 µM) | 170 | 6.76 (≈ 12.6 µM) |  | 
27 | COc1nc2ccc(SC)cc2cc1C(c1ccc(Cl)cc1)C1(O)CCNC(Cc2ccc(F)cc2)C1 (stereo not drawn) [Compound 300] | 1.07 (≈ 1.99 µM) | 90 | 1.70 (≈ 3.17 µM) |  | 
28 | COc1nc2ccc(S(C)(=O)=O)cc2cc1C(c1ccccc1)C1(O)CCNC(c2ccc(F)cc2C)C1 (stereo not drawn) [Compound 186] | 9.51 (≈ 17.8 µM) | 166 | 8.47 (≈ 15.8 µM) |  | 
29 | O=c1[nH]c2ccc(Cl)cc2cc1C(c1ccc(Cl)cc1)C1(O)CCNC(CO)C1 (stereo not drawn) [Compound 446] | 10.89 (≈ 25.1 µM) | 210 |  |  | 5.46 (≈ 12.6 µM)

The remaining lines, values ahead:

Row | IC90 STA B29213 [1] [µg/mL] | melting point [°C] | IC90 MSM 607 [2] [µg/mL] | IC90 [1] [µg/mL] | IC90 [2] [µg/mL] | SMILES
30 | 9.75 (≈ 22.4 µM) | 114 | 4.35 (≈ 9.99 µM) |  |  | COc1nc2ccc(Cl)cc2cc1C(c1ccc(Cl)cc1)C1(O)CCNCC1F (stereo not drawn) [Compound 452]
31 | 5.70 (≈ 10 µM) | 104 | 3.60 (≈ 6.32 µM) |  |  | COc1nc2ccc(Br)cc2cc1C(c1ccc(Cl)cc1)C1(O)CCNC(Cc2ccc(F)cc2)C1 (stereo not drawn) [Compound 357]
32 | 2.49 (≈ 4.46 µM) | 118 | 2.22 (≈ 3.98 µM) |  |  | COc1nc2ccc(Br)cc2cc1C(c1ccc(Cl)cc1)C1(O)CCNC(CC2CCCCC2)C1 (stereo not drawn) [Compound 256]
33 |  | 140 |  | 5.63 (≈ 12.6 µM) | 3.99 (≈ 8.92 µM) | COc1nc2ccc(Cl)cc2cc1C(c1ccc(Cl)cc1)C1(O)CCNC(CO)C1 (stereo not drawn) [Compound 435]
34 | 7.09 (≈ 12.6 µM) | 143 | 7.09 (≈ 12.6 µM) |  |  | COc1nc2ccc(Br)cc2cc1C(c1ccc(SC)cc1)C1(O)CCNC(Cc2ccccc2)C1 (stereo not drawn) [Compound 100]
35 | 1.91 (≈ 3.56 µM) | 147 | 1.07 (≈ 1.99 µM) |  |  | COc1nc2ccc(SC)cc2cc1C(c1ccc(Cl)cc1)C1(O)CCNC(c2ccc(F)cc2C)C1 (stereo not drawn) [Compound 245]
36 | 4.97 (≈ 8.91 µM) | 108 | 3.14 (≈ 5.63 µM) |  |  | COc1nc2ccc(Br)cc2cc1C(c1ccc(Cl)cc1)C1(O)CCNC(CC2CCCCC2)C1 (stereo not drawn) [Compound 257]
37 | 2.86 (≈ 5.02 µM) | 132 | 1.43 (≈ 2.51 µM) |  |  | COc1nc2ccc(Br)cc2cc1C(c1ccc(Cl)cc1)C1(O)CCNC(Cc2ccc(F)cc2)C1 (stereo not drawn) [Compound 340]
38 |  | 143 |  | 3 (≈ 6.3 µM) | 3 (≈ 6.3 µM) | COc1nc2ccc(Br)cc2cc1C(c1ccc(Cl)cc1)C1(O)CCNC(C)C1 (stereo not drawn) [Compound 11]
39 | 1.80 (≈ 3.16 µM) | 196 | 2.86 (≈ 5.02 µM) |  |  | COc1nc2ccc(Br)cc2cc1C(c1ccc(Cl)cc1)C1(O)CCNCC1Cc1cccc(F)c1 (stereo not drawn) [Compound 228]
40 | 10.01 (≈ 19.9 µM) | 159 to 161 | 6.32 (≈ 12.6 µM) |  |  | C=CCC1CNCCC1(O)C(c1ccc(Cl)cc1)c1cc2cc(Br)ccc2nc1OC (stereo not drawn) [Compound 393]
41 |  | 148 |  | 3.21 (≈ 6.31 µM) | 2.55 (≈ 5.02 µM) | COc1nc2ccc(Cl)cc2cc1C(c1ccc(Cl)cc1)C1(O)CCNC(Cc2cccnc2)C1 (stereo not drawn) [Compound 467]
42 | 5.48 (≈ 12.6 µM) | 110 | 2.18 (≈ 5.01 µM) |  |  | COc1nc2ccc(Cl)cc2cc1C(c1ccc(Cl)cc1)C1(O)CCNCC1F (stereo not drawn) [Compound 451]
43 |  | 162 to 164 |  | 6.32 (≈ 12.6 µM) | 3.17 (≈ 6.32 µM) | C=CCC1CNCCC1(O)C(c1ccc(Cl)cc1)c1cc2cc(Br)ccc2nc1OC (stereo not drawn) [Compound 392]
44 |  | 158 | 2.44 (≈ 5 µM) | 3.08 (≈ 6.31 µM) |  | C=CC1CC(O)(C(c2ccc(Cl)cc2)c2cc3cc(Br)ccc3nc2OC)CCN1 (stereo not drawn) [Compound 371]
